Experimental data from US20250000881A1, “TREATMENT OF TREATMENT RESISTANT […] PSILOCYBIN” (COMPASS […], priority 2021, published 2025).
“And” between values parts separate entries of the source, which are not always exact repeats. Equal values may be shown once.

Tests used:
[1] = tested on: participants with TRD from Example 2; test: Long term follow-up study: time to any depressive event (KM quartiles); assay type: in vivo, human
Method: The following example is a long term follow up of study of a sustained responder population from Example 2. 58 participants from Example 2 were selected for a long term 52 week follow up study. Of the 58 patients, 22 received a 25 mg dose of psilocybin, 19 received a 10 mg dose of psilocybin, and 17 received a 1 mg dose of psilocybin. […] None of the patients in this study received treatment for depression before their week 12 MADRS visit in Example 2. Patients were analyzed for a change in MADRS total score from Baseline to 12, 16, 20, 24, 28, 40, and 52 weeks.
The primary endpoint of this study was to determine the median time to a depressive event after administration of psilocybin. The depressive event includes: • Initiation of new antidepressant treatment (first new antidepressant treatment in time period only); • Hospitalization due to depression/suicidality; • Suicide attempt, prevention of an imminent suicide attempt, or completed suicide; • Increased suicidality measured by worsening on MADRS item 10; • Active suicidal ideation measured by the C-SSRS; • MADRS worsening; and • Discontinuation for adverse event or lack of efficacy.

adult subjects with TRD = test: Phase 2b randomised double-blind trial in TRD: MADRS total score, response, remission, sustained response; assay type: in vivo, human; conditions: for Protocol-defined sustained response (MADRS response criteria from week 3 until week 12): up to week 12
Method: Studies with more rigorous designs are needed to better the therapeutic potential of psilocybin in treatment-resistant depression (TRD). The aim of this study was to assess the effectiveness of 3 different doses of psilocybin (1 mg, 10 mg, and 25 mg) in TRD.
This was a Phase 2b, international multicentre, randomized, fixed dose, double-blind trial. The study population included adult men and women, 18 years of age and older, with TRD. […] Augmentation counts as a second treatment, provided it was approved for the adjunctive treatment of MDD in that country.
The treatment period was determined the optimal therapeutic dose; 233 subjects were randomised in an approximately 1:1:1 ratio to receive 1 mg psilocybin (79 subjects), 10 mg psilocybin (75 subjects), or 25 mg psilocybin (79 subjects). Average patient baseline MADRS values were 31.9 in the 25 mg group, 33.0 in the 10 mg group, and 32.7 in the 1 mg group. This represents moderate to severe depression (≥31=cut-off for severe depression based on MADRS).
The primary objective of this study was to evaluate the efficacy of psilocybin (25 mg or 10 mg) compared to 1 mg, administered under supportive conditions to adult subjects with TRD, in improving depressive symptoms, as assessed by the change in the Montgomery-Asberg Depression Rating Scale (MADRS) total score from baseline. Baseline is defined as the assessment score obtained on Day-1. The primary time point is week 3; this variable was analyzed for the change from Baseline to day 1, and weeks 1, 3, 6, 9, and 12 of the study.
Additional objectives of this study were to assess the efficacy of psilocybin compared to 1 mg psilocybin on the: • (a) proportion of subjects with response defined as a ≥50% decrease in MADRS total score from baseline to week 3. This was assessed at day 1 and at weeks 1, 6, 9, and 12 of the study. • (b) proportion of subjects who have a sustained response at week 12. Sustained response is defined as the proportion of patients fulfilling response criteria at any visit up to and including week 3, that also fulfils response criteria at all subsequent visits up to and including week 12. Response is defined as ≥50% decrease in MADRS total score from baseline.
Subjects were randomized to the appropriate therapy after it was confirmed at baseline (Visit 2) that the subject remained eligible to participate in the study. Randomization was stratified by country. Each subject was assigned 1 treatment bottle containing 5 capsules packaged in a double-blind fashion, depending on the randomized treatment arm, the bottle will contain 1 of the following: • (a) 10-mg treatment bottle: 2×5-mg capsules and 3×placebo capsules; • (b) 25-mg treatment bottle: 5×5-mg capsules; or • (c) 1-mg treatment bottle: 1×1-mg capsule and 4×placebo capsules.
The change from baseline in MADRS total score at week 3 will be evaluated with a mixed effects model for repeated measures analysis. The model includes treatment, visit, study site, prior psychedelic experience, treatment by visit interaction, subject as a random effect, and baseline MADRS total score. Comparison of the psilocybin optimal dose versus 1 mg psilocybin was performed at the 0.05 testing level. A sensitivity analysis was performed on the primary mixed model repeated measures model adding treatment by study site or country interaction into the model. If it was significant (at the 10% level), then further investigations of sites were performed.
[…] additional efficacy endpoints that are dichotomous variables (proportion of subjects who are responders, remitters, and sustained responders) were analyzed using the Cochran Mantel Haenszel chi square test, stratified by country, to compare the psilocybin optimal therapeutic dose versus 1 mg psilocybin. A stepdown procedure to correct for multiplicity was employed. […]

How did the “Time to any depressive event, KM Q1, estimate (95% CI)” value (“Time … KM Q1, estimate (95% CI)” for short) ([1]; 1 mg (N = 17)) turn out when `CN(C)CCc1c[nH]c2cccc(OP(=O)(O)O)c12` [COMP360, psilocybin] was run?
The value was 6.0 (2.0, 14.0) days.

And the “Time to any depressive event, KM Q2 (median), estimate (95% CI)” value ([1]; 1 mg (N = 17))?
Its value is 21 days and 21.0 (3.0, 78.0) days.

And the “Time to any depressive event, KM Q3, estimate (95% CI)” value ([1]; 1 mg (N = 17))?
The value was 78.0 (21.0, —) days.

And the “Time … KM Q1, estimate (95% CI)” value ([1]; 10 mg (N = 19))?
Its value is 19.0 (2.0, 41.0) days.

What about the “Time to any depressive event, KM Q2 (median), estimate (95% CI)” value ([1]; 10 mg (N = 19)) of the same compound?
Its value is 43 days and 43.0 (19.0, 142.0) days.

What about the “Time … KM Q1, estimate (95% CI)” value ([1]; 25 mg (N = 22)) of the same compound?
Its value is 24.0 (2.0, 132.0) days.

What about the “MADRS total score change from baseline, LS mean” value (adult subjects with TRD; 1 mg (N = 79), Day 2) of the same compound?
The value was −9.0.

And the “MADRS total score change from baseline, LS mean” value (adult subjects with TRD; 1 mg (N = 79), Week 1)?
Its value is −6.8.

What about the “MADRS total score change from baseline, LS mean” value (adult subjects with TRD; 1 mg (N = 79), Week 3) of the same compound?
The value was −5.5.

And the “MADRS total score change from baseline, LS mean” value (adult subjects with TRD; 1 mg (N = 79), Week 6)?
The value was −6.3.

And the “MADRS total score change from baseline, LS mean” value (adult subjects with TRD; 1 mg (N = 79), Week 9)?
The value was −5.4.

And the “MADRS total score change from baseline, LS mean” value (adult subjects with TRD; 1 mg (N = 79), Week 12)?
The value was −6.0.

And the “Sustained response (MADRS response at week 3 and week 12 and at least one of week 6 and week 9)” value (adult subjects with TRD; 1 mg group)?
The value was 10.1%.

What about the “Protocol-defined sustained response (MADRS response criteria from week 3 until week 12)” value (adult subjects with TRD; 1 mg group) of the same compound?
Its value is 10.1%.

What about the “MADRS total score change from baseline, LS mean” value (adult subjects with TRD; 10 mg (N = 75), Day 2) of the same compound?
Its value is −12.0.

And the “MADRS total score change from baseline, LS mean” value (adult subjects with TRD; 10 mg (N = 75), Week 1)?
Its value is −9.1.

What about the “MADRS total score change from baseline, LS mean” value (adult subjects with TRD; 10 mg (N = 75), Week 3) of the same compound?
The value was −7.9.

What about the “MADRS total score change from baseline, LS mean” value (adult subjects with TRD; 10 mg (N = 75), Week 6) of the same compound?
The value was −6.0.

And the “MADRS total score change from baseline, LS mean” value (adult subjects with TRD; 10 mg (N = 75), Week 9)?
Its value is −6.1.

What about the “MADRS total score change from baseline, LS mean” value (adult subjects with TRD; 10 mg (N = 75), Week 12) of the same compound?
Its value is −5.7.

What about the “MADRS total score change from baseline, LS mean diff vs 1 mg” value (from here on “MADRS total score change … vs 1 mg”) (adult subjects with TRD; 10 mg vs 1 mg, Day 2) of the same compound?
The value was −3.0.

What about the “MADRS total score change … vs 1 mg” value (adult subjects with TRD; 10 mg vs 1 mg, Week 1) of the same compound?
The value was −2.2.

And the “MADRS total score change … vs 1 mg” value (adult subjects with TRD; 10 mg vs 1 mg, Week 3)?
The value was −2.4.

What about the “MADRS total score change … vs 1 mg” value (adult subjects with TRD; 10 mg vs 1 mg, Week 6) of the same compound?
Its value is 0.3.

What about the “MADRS total score change … vs 1 mg” value (adult subjects with TRD; 10 mg vs 1 mg, Week 9) of the same compound?
The value was −0.7.

And the “MADRS total score change … vs 1 mg” value (adult subjects with TRD; 10 mg vs 1 mg, Week 12)?
The value was 0.3.

What about the “MADRS total score change from baseline, LS mean” value (adult subjects with TRD; 25 mg (N = 79), Day 2) of the same compound?
Its value is −15.0.

What about the “MADRS total score change from baseline, LS mean” value (adult subjects with TRD; 25 mg (N = 79), Week 1) of the same compound?
Its value is −13.1.

What about the “MADRS total score change from baseline, LS mean” value (adult subjects with TRD; 25 mg (N = 79), Week 3) of the same compound?
The value was −12.0.

What about the “MADRS total score change from baseline, LS mean” value (adult subjects with TRD; 25 mg (N = 79), Week 6) of the same compound?
The value was −11.7.

What about the “MADRS total score change from baseline, LS mean” value (adult subjects with TRD; 25 mg (N = 79), Week 9) of the same compound?
Its value is −9.4.

What about the “MADRS total score change from baseline, LS mean” value (adult subjects with TRD; 25 mg (N = 79), Week 12) of the same compound?
The value was −9.6.

What about the “Sustained response (MADRS response at week 3 and week 12 and at least one of week 6 and week 9)” value (adult subjects with TRD; 25 mg group) of the same compound?
Its value is 24.1%.

What about the “Protocol-defined sustained response (MADRS response criteria from week 3 until week 12)” value (adult subjects with TRD; 25 mg group) of the same compound?
The value was 20.3%.

And the “MADRS total score change … vs 1 mg” value (adult subjects with TRD; 25 mg vs 1 mg, Day 2)?
The value was −5.9.

And the “MADRS total score change … vs 1 mg” value (adult subjects with TRD; 25 mg vs 1 mg, Week 1)?
Its value is −6.3.

What about the “MADRS total score change … vs 1 mg” value (adult subjects with TRD; 25 mg vs 1 mg, Week 3 (primary endpoint)) of the same compound?
Its value is −6.6.

What about the “MADRS total score change … vs 1 mg” value (adult subjects with TRD; 25 mg vs 1 mg, Week 6) of the same compound?
Its value is −5.3.

What about the “MADRS total score change … vs 1 mg” value (adult subjects with TRD; 25 mg vs 1 mg, Week 9) of the same compound?
Its value is −4.0.

And the “MADRS total score change … vs 1 mg” value (adult subjects with TRD; 25 mg vs 1 mg, Week 12)?
Its value is −3.6.
